Measurements from patent US9487489B2, “Halogen-substituted pyrazole derivatives as pest-control agents” (BAYER CROPSCIENCE AKTIENGESELLSCHAFT, priority 2013, dated 2016).

Assays:
[1] = system: adult cat fleas (Ctenocephalides felis); assay: Ctenocephalides felis in vitro contact test with adult cat fleas (T1); details: after 48 h
Procedure, shortened: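 Adult cat fleas (Ctenocephalides felis), 5-10 per tube, were exposed to the inner surface of 25 ml test tubes coated with compound in acetone. Tubes were incubated lying flat under ambient conditions. Efficacy was then read by standing tubes upright and knocking the fleas to the floor. Fleas that stayed motionless or moved uncoordinatedly counted as dead or moribund, where 100% means all fleas dead or moribund and 0% means none harmed.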

[2] = system: bont tick nymphs (Amblyomma hebraeum); details: after 48 h
[3] = system: adult houseflies (Musca domestica); assay: Musca domestica test (MUSCDO); format: in vivo; details: application rate 100 ppm; after 2 days
Procedure, shortened: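 Groups of 10 adult Musca domestica exposed to a sugar-soaked sponge treated with the water-diluted DMSO preparation of compound at the chosen concentration. Percent kill read at day 2, where 0% means no flies killed and 100% all killed.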

[4] = system: adult dog ticks (Rhipicephalus sanguineus); assay: Rhipicephalus sanguineus in vitro contact test with adult brown dog ticks (T2); details: after 48 h
Procedure, shortened: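 Acetone solutions coated onto test tube walls and floor, giving 5 μg/cm^2 at 900 ppm. Five to ten adult ticks held per tube in the dark at room temperature for 48 h, then heated at 45-50° C for up to 5 min; efficacy is the percentage of dead or moribund ticks unable to climb away.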

[5] = system: L1 larvae of the Australian sheep blowfly (Lucilia cuprina); assay: Lucilia cuprina test (LUCICU); format: in vivo; details: application rate 100 ppm; after 2 days
Procedure, shortened: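 Percent mortality read at 2 days; 100% = all larvae killed, 0% = none. Test compound, predissolved in DMSO and water-diluted to the wanted level, was mixed into minced horsemeat holding roughly 20 first-instar larvae.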

[6] = system: caterpillars of the armyworm (Spodoptera frugiperda); assay: Spodoptera frugiperda spray test (SPODFR); format: in vivo; details: maize leaf discs, after 7 days
Procedure, shortened: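 Percent kill read at day 7 on caterpillar-infested maize leaf discs. Discs were first sprayed with aqueous emulsifier-containing (1000 ppm) preparations made from acetone/dimethylformamide solutions, and dried. Scale: 0% none dead, 100% all dead.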

[7] = system: Tick nymphs (Amblyomma hebraeum); assay: Amblyomma hebraeum test (AMBYHE), tick nymphs immersed; format: in vivo; details: application rate 100 ppm; immersed one minute; after 42 days
Experimental: A. Amblyomma hebaraeum Test (AMBYHE)
Solvent: dimethyl sulphoxide
To produce a suitable preparation of active compound, 10 mg of active compound are mixed with 0.5 ml of dimethyl sulfoxide, and the concentrate is diluted with water to the desired concentration.
Tick nymphs (Amblyomma hebraeum) are placed into perforated plastic beakers and immersed in the desired concentration for one minute. The ticks are transferred on filter paper into a Petri dish and stored in a climate-controlled cabinet.
After 42 days, the kill in % is determined. 100% means that all of the ticks have been killed; 0% means that none of the ticks have been killed.

SMILES | efficacy (dead or moribund fleas) ([1]; application rate 1 μg/cm^2) [%] | efficacy (dead or moribund fleas) ([1]; application rate 5 μg/cm^2) [%] | efficacy (dead or moribund ticks) [2] [%] | efficacy (kill in %) [3] [%] | efficacy (dead or moribund ticks) ([4]; application rate 1 μg/cm^2) [%] | efficacy (dead or moribund ticks) ([4]; application rate 5 μg/cm^2) [%] | efficacy (kill in %) [5] [%] | efficacy in % ([6]; application rate 100 g/ha) [%] | efficacy (kill in %) [7] [%] | efficacy in % ([6]; application rate 500 g/ha) [%]
Cn1nc(C(F)(F)C(F)(F)F)c(C(F)(F)F)c1-n1cc(-c2ccc(Cl)c(C(=O)NCC(F)(F)F)c2)cn1 [Ic-23] | 100 | 100 | 100 | 100 | 100 | 100 | 100 | 100 | 100 | 
Cn1nc(C(F)(F)C(F)(F)F)c(C(F)(F)F)c1-n1cc(-c2ccc(Cl)c(C(=O)NC3CC3F)c2)cn1 (stereo not shown) [Ic-81] | 100 | 100 | 100 | 100 | 100 | 100 | 100 | 100 |  | 
Cn1nc(C(F)(F)C(F)(F)F)c(C(F)(F)F)c1-n1cc(-c2ccc(Br)c(C(=O)NC3(C#N)CC3)c2)cn1 [Ic-34] | 100 | 100 |  | 100 | 80 | 100 | 100 | 100 | 100 | 
Cn1nc(C(F)(F)C(F)(F)F)c(C(F)(F)F)c1-n1cc(-c2ccc(Cl)c(C(=O)NCC(F)F)c2)cn1 [Ic-78] | 100 | 100 |  | 100 | 100 | 100 | 100 | 100 |  | 
Cn1nc(C(F)(F)C(F)(F)F)c(C(F)(F)F)c1-n1cc(-c2ccc(F)c(C(=O)NC3(C#N)CC3)c2)cn1 [Ic-36] | 100 | 100 |  | 100 | 100 | 100 | 100 | 100 | 100 | 
Cn1nc(C(F)(F)C(F)(F)F)c(C(F)(F)F)c1-n1cc(-c2cc(F)c(Cl)c(C(=O)NC3(C#N)CC3)c2)cn1 [Ic-27] | 100 | 100 |  | 100 | 100 | 100 | 100 |  | 100 | 100
Cn1nc(C(F)(F)C(F)(F)F)c(C(F)(F)F)c1-n1cc(-c2ccc([N+](=O)[O-])c(C(=O)NC3CC3)c2)cn1 [Ic-66] | 100 | 100 |  | 100 | 100 | 100 | 100 | 100 |  | 
Cn1nc(C(F)(F)C(F)(F)F)c(C(F)(F)F)c1-n1cc(-c2cc(F)c(Cl)c(C(=O)NC3CC3)c2)cn1 [Ic-24] | 100 | 100 |  | 100 | 100 | 100 | 100 |  | 100 | 100
CN(C(=O)c1cc(-c2cnn(-c3c(C(F)(F)F)c(C(F)(F)C(F)(F)F)nn3C)c2)ccc1Cl)C1(C#N)CC1 [Ic-96] | 100 | 100 |  | 100 | 100 | 100 | 100 | 100 |  | 
